Test results from publication PMC3231940, “Disposition, metabolism and mass balance of [^14C]apremilast following oral administration” (Xenobiotica; the Fate of Foreign Compounds in Biological …, 2011).
Values joined by “and” are separate entries in the source; they are usually repeats but may differ in a detail not shown here. Equal entries are not always repeated.

How the values were obtained:
[1] = Metabolite profiling by HPLC radiochromatography in plasma, urine and faeces; format: in vivo, human; settings: for Plasma (% AUC relative to TRA); share of circulating radioactivity: AUC0-t (unchanged drug or metabolite)/AUC0-48 (TRA) * 100%; for Tmax: male, median and range; for Plasma Cmax: plasma radioactivity concentrations and radiochromatography; for % of dose excreted, urine: urine collected up to 48-h post-dose
Protocol: Individual plasma samples collected from all subjects at 0.5, 1, 2.5, 8, 24, 36 and 48 h post-dose were analysed for metabolite profiling. A pooled sample (equal volume from 0.5,1,2.5,8 and 24 h) from subject 1 was also used for metabolite profiling. Three volumes of acetonitrile were added to each sample, followed by mixing and centrifu-gation. The supernatant was removed and the pellet was washed twice with acetonitrile. The combined superna-tants were evaporated to dryness under a stream of nitrogen. The residues were re-suspended in acetonitrile: 1% formic acid in water (1:1), assayed for extraction recovery and analysed for metabolite profiling.
For each subject, urine samples were pooled using an equal percentage by volume of the 0-4, 4-8, 8-12 and 12-24-h samples. The 24-48-h urine sample from each subject and a pool of the 0-168-h urine samples from subject 1 were also analysed for metabolite profiling. Samples were mixed and centrifuged prior to the supernatants being transferred to fresh tubes for metabolite profiling analysis.
Faecal homogenates for metabolite profiling were pooled using an equal percentage by weight to generate two pools (0-48 h and 48-96 h) for each subject. An additional pool (0-168 h) was prepared using the samples collected from subject 1. An aliquot (approximately 6 g) of each pool was extracted with three volumes of acetonitrile; samples were mixed and centrifuged. The supernatant was removed and the pellets were extracted twice with an additional 12 mL of acetonitrile each time. The combined supernatants were evaporated to dryness under a stream of nitrogen and the residue was re-suspended in a small volume (approximately 400 μL) of acetonitrile: 1% formic acid in water (1:1). Samples were assayed for extraction recovery prior to metabolite profiling.
HPLC analysis for metabolite profiling was performed using a Shimadzu LC-10ADVP (Shimadzu Corp., Columbia, MD) or a Waters 2695 Alliance Separation Module (Waters Corp., Milford, MA) with the autosampler set to an ambient temperature of approximately 22°C. ASPD-10A VPUV-Vis Detector or a Waters 996 Photodiode array detector set to 254 nm was used to detect UV absorbance. [^14C]Apremilast and metabolites were separated using a Phenomenex Luna C 18(2) column (150 × 4.6 mm, 3 μm; Phenomenex, Torrance, CA) equipped with a RP-18 guard column (15×3.2 mm, 7 μm) or using an ACE 3 C18 column (150 × 4.6 mm, 3 μm; Advanced Chromatography Technologies, Aberdeen, Scotland) equipped with an ACE 3 guard column (10×3mm, 3 μm). The mobile phases used were 0.4% formic acid in water; pH 3.2 with ammonium hydroxide (mobile phase A) and acetonitrile (mobile phase B). The column temperature was 30°C and the flow rate was 0.7mL/min. The linear gradient was delivered as follows: 0-5 min to 100% A; 5-20 min to 85% A; 20-30 min hold at 85% A; 30-50 min to 65% A; 50-60 min to 60% A; 60-70 min to 50% A; 70-75 min to 0% A; hold at 0% A until 80 min; return to initial conditions over 2 min.
Radioactivity profiles for excreta were determined by radiochromatography using liquid chromatography-accurate radioisotope counting stop-flow system (LC-ARC; AIM Research Company, Wilmington, DE). Radioactivity was detected using a β-Ram Radioflow detector (IN/US Systems, Brandon, FL) equipped with a 1300-μL liquid cell. Liquid scintillation cocktail and column eluate were mixed at a ratio of 2.5:1. Radioactive peaks were quantified using LC-ARC data handling software. Plasma radioactivity profiles were determined by collecting the column eluate into 96-well Deepwell LumaPlates at a rate of 0.25 min/fraction. The plates were dried and the radioactivity in each well determined using a PerkinElmer TopCount NXT Microplate Scintillation Counter. HPLC radiochromatograms were reconstructed using LC-ARC data handling software.
Pharmacokinetic data were generated by non-compartmental analysis of plasma or whole blood versus time profiles using WinNonlin (version 4.1, Enterprise Edition). […]

[2] = tested on: TNF-α production by human peripheral blood mononuclear cells; test: TNF-α production assay in LPS-stimulated PBMC; format: cell-based; settings: LPS 1 ng/mL, 16-18 h, ELISA
Protocol: (§1) PDE4 enzyme was isolated from U937 human monocytic cells and used for testing inhibition in a cAMP hydrolysis assay as previously described ([Schafer et al. 2010]). For the TNF-α production assay, human peripheral blood mono-nuclear cells (PBMC) were isolated from buffy coat of normal donor blood units (Blood Center of New Jersey, East Orange, NJ) by density centrifugation over Ficoll Hypaque (Pharmacia, Piscataway, NJ). Cells were cultured in RPMI 1640 (Life Technologies, Grand Island, NY) supplemented with 5% AB^+ human serum (Gemini Bio-products, Woodland, CA), 2-mM L-glutamine, 100-U/mL penicillin and 100-μg/mL streptomycin (Life Technologies). PBMC (2×10^5 cells) were plated in 96-well flat-bottom Costar tissue culture plates (Corning, NY) in duplicate. Cells were stimulated with lipopolysaccharides (LPS) (from Salmonella abortus equi; Sigma cat.no. L-1887, St.Louis, MO) at a final concentration of 1 ng/mL in the absence or presence of compounds. The compounds were dissolved in DMSO (Sigma) and subsequent dilutions were done in culture medium immediately before use. The compounds were added to cells 1 h before LPS stimulation. The cells were incubated for 16-18 h at 37°C in 5% CO2, and super-natants were then collected, diluted with culture medium and assayed for TNF-α levels by enzyme-linked immunosorbent assay (ThermoFisher, Rockford, IL). Fifty percent inhibitory concentrations (IC50) for the PDE4 enzymatic and TNF-α assay were calculated by non-linear regression analysis using Prism 5.1 (GraphPad Software). Regression curves were sigmoidal dose response curves with maximum and minimum constrained to 100% and 0%, respectively.

[3] = tested on: PDE4 enzyme isolated from U937 human monocytic cells; test: PDE4 inhibition, cAMP hydrolysis assay; format: biochemical; settings: PDE4 from U937 cells, cAMP hydrolysis
Protocol: as §1

[4] = human, plasma, radiochromatography, single oral 20-mg dose
[5] = single oral 20-mg dose, mean ± SD
[6] = radiochromatography, single oral 20-mg dose, mean ± SD

| Plasma (% AUC relative to TRA); share of circulating radioactivity [1] | Tmax [1, 4] | Plasma Cmax [1, 5] | Plasma AUC0-t [1, 6] | % of dose excreted, urine [1] | IC50 [2] | IC50 [3] | Plasma (% AUC relative to TRA); share of circulating radioactivity ([1]; listed as O-desmethyl apremilast glucuronide) | half-life ([1]; human, plasma, radiochromatography, single oral 20-mg dose, mean ± SD, read-out: Plasma t½ (converted)) | Plasma AUC0-∞ [1, 6] | Share of the excreted radioactivity / excreted dose ([1]; urine plus faeces) | SMILES |
| --- | --- | --- | --- | --- | --- | --- | --- | --- | --- | --- | --- |
| 4.9% | 2.5 h | 9.4±4.3 ngEq/mL | 269±146 ngEq*h/mL | 4.0 % of dose | > 10 µM | > 80 µM |  |  |  |  | CCOc1cc([C@@H](CS(C)(=O)=O)N2C(=O)c3cccc(N)c3C2=O)ccc1OC1OC(C(=O)O)C(O)C(O)C1O (stereo partly drawn) [Metabolite M14, O-desmethyl, N-deacetyl apremilast glucuronide] |
| 38.7% | 2.5 h | 111±36 ngEq/mL | 2124±331 ngEq*h/mL | 34 % of dose and 33.7 % of dose | > 10 µM | > 100 µM | 39% | 948 ± 234 min | 2446±416 ngEq*h/mL | 34% | CCOc1cc([C@@H](CS(C)(=O)=O)N2C(=O)c3cccc(NC(C)=O)c3C2=O)ccc1O[C@@H]1O[C@H](C(=O)O)[C@@H](O)[C@H](O)[C@H]1O [Metabolite M12, O-desmethyl apremilast glucuronide] |
